Measurements from US9365591B2, “Fluoroergoline analogs” (MAP Pharmaceuticals, Inc., priority 2011, dated 2016).
pEC50, pIC50: −log10 of the molar value. Entries after “also recorded” stand apart in the source; their conditions may differ.

Legend:
human 5-HT2B receptor [1] = biological target: T1, human 5-HT2B receptor (Homo sapiens, UniProt P41595); assay: Aequorin assay, agonist activity at the 5-HT2B receptor; format: cell-based
T1 construct: host or cells: CHO-K1
Procedure: Percentage activation values were determined for 2-CF3 dihydroergotamine at the 5-HT2B receptor.

human 5-HT2B receptor [2] = biological target: T1, human 5-HT2B receptor; assay: Aequorin assay, competitive antagonist activity at the 5-HT2B receptor; format: cell-based
Procedure: Percentage inhibition values were determined for 2-CF3 dihydroergotamine on the 5-HT2B receptor.

human saphenous veins = assay: Constriction assay, human saphenous veins; conditions: CCRC 100 pM to 10 μM, 6 donors
Procedure: (§1) Human coronary arteries and saphenous veins were set up under isometric conditions on either small vessel wire myographs or organ baths, depending on vessel size, in order to examine the influence of the test article on the relative changes in tension. In order to assess tissue viability, the vessel segments were constricted with a high potassium solution (KPSS, 62.5 mM) three times. Vessels were then pre-constricted with sumatriptan (1 μM) and endothelium-dependent vasorelaxation investigated using bradykinin (10 μM). […] All vessels were fully relaxed at the end of the experiment using forskolin (10 μM).
(§2) Coronary arteries and small saphenous veins, having been cut into ring segments of approximately 2 mm length, were attached by 40 μm diameter wire running through the lumen of the vessel to stainless steel heads in 5 mL myograph baths containing PSS (physiological saline solution), aerated with 95% 02 and 5% CO2 and maintained at a temperature of 37° C. Changes in tension were recorded using a Danish Myotech isometric transducer. The vessel segments were allowed to equilibrate for at least 30 minutes after set up. Segments were processed through a standardization procedure of tension application, which reduces signal variability and allows for optimal tissue response to be obtained prior the pharmacological intervention. […]

human coronary arteries = assay: Constriction assay, human coronary arteries; conditions: CCRC 100 pM to 10 μM in half-log steps, n=6
Procedure: as §1, §2

[3] = Metabolism in human liver microsomes; conditions: 1 μM, 37° C., 0-60 min; for metabolism by human liver microsomes in the presence of NADPH: 0.2 mg protein/mL
Procedure: Metabolism of dihydroergotamine (DHE) and 2-CF3 DHE was evaluated in human liver microsomes. DHE mesylate and 2-CF3 DHE mesylate (1 μM each) were incubated separately with human liver microsomes (0.2 mg protein/mL) in triplicate at 37° C. in 0.2 mL (final volume) incubation buffer (50 mM potassium phosphate buffer, pH 7.4, 3 mM MgCl2 and 1 mM EDTA, pH 7.4) with or without cofactor, NADPH-generating system. The NADPH-generating system consisted of 1 mM NADPH, pH 7.4, 5 mM glucose-6-phosphate, pH 7.4 and 1 unit/mL glucose-6-phosphate dehydrogenase. DHE was added to the incubation mixtures in water. 2-CF3-DHE was added to incubation mixtures in 50:50 (v:v) acetonitrile:water. A low level of acetonitrile in the incubation was maintained to avoid any solvent effects on enzyme activity (typically at 0.5% or lower). Reactions were initiated by the addition of the NADPH-generating system and were terminated at 0, 15, 30 and 60 minutes after initiation by the addition of 175 μL of stop reagent (acetonitrile) containing two internal standards (4′-hydroxydiclofenac-d4 and 1′-hydroxymidazolam-d4, 200 and 50 ng/mL in the final stopped incubation, respectively). The samples were then centrifuged and the supernatant fractions were analyzed by LC/MS/MS to quantify the formation of 8′-OH-DHE (metabolite) in the DHE samples and DHE and 8′-OH-DHE in the 2-CF3-DHE samples.

Salmonella typhimurium = assay: Genotoxicity study, reversion of histidine-requiring Salmonella typhimurium strains; format: cell-based; conditions: five histidine-requiring strains, absence and presence of a rat liver metabolizing system; Dunnett's test, 1% level
Procedure: Genotoxicity studies were performed to evaluate the potential mutagenic activity of 2-CF3-DHE. Studies were performed to examine the ability of 2-CF3-DHE to revert five histidine-requiring strains of Salmonella typhimurium in the absence and presence of a rat liver metabolizing system. […] This is consistent with the conclusion that there was no evidence of any mutagenic activity observed with 2-CF3-DHE.

T1 sequence (P41595 whole entry): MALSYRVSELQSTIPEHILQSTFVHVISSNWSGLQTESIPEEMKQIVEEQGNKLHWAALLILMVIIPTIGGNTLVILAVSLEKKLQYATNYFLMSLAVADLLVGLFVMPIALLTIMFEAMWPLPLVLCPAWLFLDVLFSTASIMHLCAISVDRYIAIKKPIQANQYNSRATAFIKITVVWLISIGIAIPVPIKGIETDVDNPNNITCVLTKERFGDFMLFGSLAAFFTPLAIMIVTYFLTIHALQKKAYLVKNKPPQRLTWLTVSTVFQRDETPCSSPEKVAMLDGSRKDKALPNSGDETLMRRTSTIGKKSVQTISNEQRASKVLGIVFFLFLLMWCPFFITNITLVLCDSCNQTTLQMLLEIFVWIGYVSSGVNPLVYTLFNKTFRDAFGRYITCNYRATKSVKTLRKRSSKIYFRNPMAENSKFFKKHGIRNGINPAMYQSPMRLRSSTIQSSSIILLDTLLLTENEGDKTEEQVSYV

SMILES: CN1C[C@H](C(=O)N[C@]2(C)O[C@@]3(O)C4CCCN4C(=O)[C@H](Cc4ccccc4)N3C2=O)CC2c3cccc4[nH]c(C(F)(F)F)c(c34)CC21 (stereo partly drawn) [2-CF3-dihydroergotamine]
- agonist activity at the 5-HT2B receptor (human 5-HT2B receptor [1]; 0.01 nM to 20,000 nM, compared with Emax of α-methyl-5-HT): no agonist activity; also recorded: little agonist activity
- antagonism of the 5-HT2B receptor (human 5-HT2B receptor [2]; FIG. 2): potent antagonism

SMILES: CN1C[C@H](C(=O)N[C@]2(C)O[C@@]3(O)[C@@H]4CCCN4C(=O)[C@H](Cc4ccccc4)N3C2=O)CC2c3cccc4[nH]c(C(F)(F)F)c(c34)CC21 (stereo partly drawn) [2-CF3-dihydroergotamine]
- change in tension, saphenous veins (human saphenous veins): no change in tension
- change in tension, coronary arteries (human coronary arteries; listed as 2-CF3-DHE): only a very slight mean increase in tension; also recorded: slight mean increase in tension
- metabolism by human liver microsomes in the presence of NADPH ([3]; listed as 2-CF3-DHE): extensively metabolized
- intrinsic clearance, slower than that of DHE ([3]; human liver microsomes 0.2 mg protein/mL, with NADPH): about 85%
- mutagenic activity, revertant numbers (Salmonella typhimurium): no statistically significant increases in the revertant numbers

SMILES: Cc1cc(NC(=O)Nc2ccc3c(ccn3C)c2)sn1 [SB204741, reference compound]
- pIC50 (human 5-HT2B receptor [2]; CHO-K1 cells, reference agonist at its EC50, 0.005 nM to 10,000 nM, read-out: IC50, antagonism of the 5-HT2B receptor): 7.54

SMILES: CN1C[C@H](C(=O)N[C@]2(C)O[C@@]3(O)[C@@H]4CCCN4C(=O)[C@H](Cc4ccccc4)N3C2=O)C[C@@H]2c3cccc4[nH]cc(c34)C[C@H]21 [dihydroergotamine, reference compound]
- metabolism by human liver microsomes in the presence of NADPH ([3]; listed as DHE): extensively metabolized

SMILES: CNS(=O)(=O)Cc1ccc2[nH]cc(CCN(C)C)c2c1 [sumatriptan, reference compound]
- pEC50 (human saphenous veins; Homo sapiens, read-out: EC50, constriction curve, saphenous veins): 6.73
- pEC50 (human coronary arteries; Homo sapiens, read-out: EC50, constriction curve, coronary arteries): 6.95

SMILES: CC(N)Cc1c[nH]c2ccc(O)cc12 (stereo not drawn) [α-methyl-5-HT, reference compound]
- pEC50 (human 5-HT2B receptor [1]; CHO-K1 cells coexpressing apoaequorin and recombinant human 5-HT2B, reference agonist, read-out: EC50, agonism of the 5-HT2B receptor): 9.00
